Data taken from US9657034B2, “Substituted furo[3,2-c]pyridines, thieno[3,2-c]pyridines, thieno[2,3-d]pyridazines and pyrido[3,4-d]pyridazines as phosphodiesterase type 10A inhibitors” (AbbVie Deutschland GmbH & Co. KG, priority 2011, dated 2017).

Legend:
PDE10A (human) = biological target: T1, PDE10A (human) (Homo sapiens, UniProt Q9Y233); assay: Measurement of PDE activity (HTRF cAMP kit), PDE10A human; format: biochemical; details: Table 1
T1 construct: purchased BPS Bioscience
Method: The recombinant PDE proteins are used in in vitro enzymatic reaction for measurement of PDE activity. These recombinant proteins, including PDE10A (human, rat and mouse PDE10) and isoforms of PDEs 1, 3, 4, and 5, were purchased from commercial vendor BPS Bioscience. The enzymatic activity of PDEs was determined by cAMP measurement kit from CisBio (IBA) using HTRF technology.
The PDE enzymatic reaction was carried out in assay buffer (20 mM Tris-HCl pH7.5, 10 mM MgCl2, 0.1% bovine serum albumin) containing enzyme and substrate. The PDE enzymes concentration ranged from 10 pM-250 pM, depending on each enzyme's specific activity. The substrate cyclic nucleotide (cAMP or cGMP) concentration used in the assay was 20 nM for PDE10, and 100 nM for other PDEs. The inhibitory effect of compound was determined by incubating various concentration of inhibitor in the enzymatic assay. Typically, compound was serial diluted in DMSO then further diluted in assay buffer. Next, the compound at varying concentration was mixed with PDE enzyme. The reaction was initiated by addition of cyclic nucleotide substrate, and incubated for 60 minutes at 29 C. The reaction was stopped by addition of lysis buffer from assay kit. The cAMP-d2 and anti-cAMP cryptate in the lysis buffer detected the level of cAMP left from the PDE hydrolysis reaction. […]

rats [1] = details: cited from earlier work
rats [2] = details: cited from earlier work; remark: listed apart in the source
rats [3] = details: cited from earlier work; remark: listed apart in the source

T1 sequence (Q9Y233 whole entry): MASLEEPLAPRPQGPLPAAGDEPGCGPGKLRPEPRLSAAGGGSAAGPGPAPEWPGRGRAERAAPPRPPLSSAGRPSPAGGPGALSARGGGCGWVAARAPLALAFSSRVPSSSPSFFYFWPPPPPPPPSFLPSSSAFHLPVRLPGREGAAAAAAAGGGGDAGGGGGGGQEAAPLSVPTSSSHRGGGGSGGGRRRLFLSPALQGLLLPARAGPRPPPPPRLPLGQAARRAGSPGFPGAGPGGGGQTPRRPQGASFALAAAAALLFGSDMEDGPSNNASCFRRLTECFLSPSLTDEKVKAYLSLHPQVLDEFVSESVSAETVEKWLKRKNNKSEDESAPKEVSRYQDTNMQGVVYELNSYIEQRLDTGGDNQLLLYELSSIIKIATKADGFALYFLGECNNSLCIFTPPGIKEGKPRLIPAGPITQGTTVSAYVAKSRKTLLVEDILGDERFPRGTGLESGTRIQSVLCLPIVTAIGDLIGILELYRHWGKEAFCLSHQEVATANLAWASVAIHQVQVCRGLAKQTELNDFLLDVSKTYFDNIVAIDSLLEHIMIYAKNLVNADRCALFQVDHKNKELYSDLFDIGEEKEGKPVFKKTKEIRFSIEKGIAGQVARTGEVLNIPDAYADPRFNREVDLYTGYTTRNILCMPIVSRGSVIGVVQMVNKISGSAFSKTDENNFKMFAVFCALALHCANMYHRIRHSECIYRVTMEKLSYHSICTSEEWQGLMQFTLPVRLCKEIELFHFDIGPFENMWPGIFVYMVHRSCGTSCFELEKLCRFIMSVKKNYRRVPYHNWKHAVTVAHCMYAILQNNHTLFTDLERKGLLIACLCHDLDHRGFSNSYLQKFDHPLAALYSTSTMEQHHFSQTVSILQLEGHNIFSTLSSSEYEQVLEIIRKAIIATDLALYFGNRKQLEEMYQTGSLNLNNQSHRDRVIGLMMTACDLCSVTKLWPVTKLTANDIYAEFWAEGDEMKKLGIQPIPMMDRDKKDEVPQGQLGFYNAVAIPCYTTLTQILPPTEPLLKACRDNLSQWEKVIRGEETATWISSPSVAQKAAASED

IC50 (PDE10A (human)) [nM] | Molecule | hyperactivity in rats induced by PCP (rats [1]) | catalepsy on its own (rats [2]; papaverine alone) | cataleptic effect of the D2 receptor antagonist haloperidol (rats [2]; together with haloperidol) | reduction of amphetamine-induced hyperactivity (rats [3])
< 100 | O=c1c2cccc(-c3cccc(O)c3)c2cnn1CCc1ccc2ccccc2n1 [Example 220, 5-(3-hydroxyphenyl)-2-[2-(quinolin-2-yl)ethyl]phthalazin-1(2H)-one] | – | – | – | –
< 100 | anti 8-((3 S)-3-hydroxypiperidin-1-yl)-2-(2-(quinolin-2-yl)cyclopropyl)isoquinolin-1(2H)-one (2E)-but-2-enedioate [Example 244] | – | – | – | –
– | COc1ccc(Cc2nccc3cc(OC)c(OC)cc23)cc1OC [Papaverine, papaverine] | reduced hyperactivity | did not cause catalepsy | potentiated the cataleptic effect | insignificant
